Legend:
[1] = target: T1, Oxysterol-binding protein 2 (Homo sapiens, UniProt Q969R2); experiment: Displacement of [3H]-25-OHC from human ORP4 overexpressed in HEK293T cell lysate assessed as inhibition constant by competitive binding assay; assay type: subcellular
T1 sequence (Q969R2 whole entry): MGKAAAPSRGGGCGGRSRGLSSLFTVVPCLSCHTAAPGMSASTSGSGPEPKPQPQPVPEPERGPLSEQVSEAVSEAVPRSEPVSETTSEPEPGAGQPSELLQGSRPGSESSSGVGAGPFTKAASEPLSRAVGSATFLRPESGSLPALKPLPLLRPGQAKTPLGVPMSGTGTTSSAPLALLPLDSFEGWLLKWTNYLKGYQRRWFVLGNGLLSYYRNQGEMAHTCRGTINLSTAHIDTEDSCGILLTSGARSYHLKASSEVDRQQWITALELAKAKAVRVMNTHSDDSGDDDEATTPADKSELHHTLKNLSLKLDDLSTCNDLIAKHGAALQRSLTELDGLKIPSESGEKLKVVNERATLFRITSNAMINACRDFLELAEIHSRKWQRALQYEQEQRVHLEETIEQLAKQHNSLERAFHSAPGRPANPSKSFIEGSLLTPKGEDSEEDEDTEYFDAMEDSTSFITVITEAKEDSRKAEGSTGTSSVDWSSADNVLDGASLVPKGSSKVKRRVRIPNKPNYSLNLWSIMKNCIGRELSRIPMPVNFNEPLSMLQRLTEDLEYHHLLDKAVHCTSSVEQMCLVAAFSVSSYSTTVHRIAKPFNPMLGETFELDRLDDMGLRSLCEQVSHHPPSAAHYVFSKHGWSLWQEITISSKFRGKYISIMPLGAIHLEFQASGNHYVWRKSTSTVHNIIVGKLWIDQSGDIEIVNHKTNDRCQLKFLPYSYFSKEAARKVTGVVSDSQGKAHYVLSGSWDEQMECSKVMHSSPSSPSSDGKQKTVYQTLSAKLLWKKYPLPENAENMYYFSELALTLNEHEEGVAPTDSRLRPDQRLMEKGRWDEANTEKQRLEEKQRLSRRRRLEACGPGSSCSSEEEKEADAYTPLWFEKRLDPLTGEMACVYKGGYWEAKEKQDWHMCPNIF

[2] = target: T2, Oxysterol-binding protein 1 (Homo sapiens, UniProt P22059); experiment: Binding affinity to human OSBP
T2 sequence (P22059 whole entry): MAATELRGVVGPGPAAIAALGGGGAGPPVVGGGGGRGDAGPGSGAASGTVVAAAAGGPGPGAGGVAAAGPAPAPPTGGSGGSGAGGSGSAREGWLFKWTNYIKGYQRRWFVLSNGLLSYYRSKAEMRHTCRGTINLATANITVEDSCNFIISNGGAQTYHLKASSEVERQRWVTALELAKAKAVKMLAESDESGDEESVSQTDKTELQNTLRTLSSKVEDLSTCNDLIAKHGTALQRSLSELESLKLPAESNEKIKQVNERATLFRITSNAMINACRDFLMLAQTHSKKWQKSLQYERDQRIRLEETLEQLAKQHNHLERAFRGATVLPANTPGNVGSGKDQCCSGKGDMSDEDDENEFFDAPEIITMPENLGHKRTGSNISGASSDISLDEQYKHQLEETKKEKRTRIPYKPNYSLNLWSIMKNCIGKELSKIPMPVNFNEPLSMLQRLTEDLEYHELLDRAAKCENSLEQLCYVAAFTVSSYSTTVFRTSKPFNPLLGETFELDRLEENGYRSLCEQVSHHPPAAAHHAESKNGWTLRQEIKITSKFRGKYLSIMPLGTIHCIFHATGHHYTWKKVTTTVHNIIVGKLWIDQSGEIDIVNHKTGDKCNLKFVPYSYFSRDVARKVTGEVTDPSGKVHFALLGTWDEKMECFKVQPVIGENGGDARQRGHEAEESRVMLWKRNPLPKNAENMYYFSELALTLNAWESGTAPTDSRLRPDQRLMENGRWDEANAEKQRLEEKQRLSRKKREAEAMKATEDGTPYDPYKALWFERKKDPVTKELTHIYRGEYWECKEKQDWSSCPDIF

[3] = target: T2, Oxysterol-binding protein 1; experiment: Displacement of [3H]-25-OHC from human OSBP overexpressed in HEK293T cell lysate assessed as inhibition constant by competitive binding assay
[4] = target: T1, Oxysterol-binding protein 2; experiment: Displacement of [3H]-25-OHC from human ORP4 overexpressed in HEK293T cell lysate assessed as inhibition constant; assay type: subcellular
[5] = target: T2, Oxysterol-binding protein 1; experiment: Displacement of [3H]-25-OHC from human OSBP overexpressed in HEK293T cell lysate assessed as inhibition constant; assay type: subcellular

| SMILES | Ki [1] | Ki [3] | also measured |
| --- | --- | --- | --- |
| CC(C)CC[C@H](O)[C@@H](C)[C@H]1CC[C@H]2[C@@H]3CC=C4C[C@@H](O)CC[C@]4(C)[C@H]3CC[C@]12C | > 3000 nM |  |  |
| C[C@H](CCCC(C)(C)O)[C@H]1CC[C@H]2[C@@H]3CC=C4C[C@@H](O)CC[C@]4(C)[C@H]3CC[C@]12C |  |  | Kd [2]: 22 nM |
| CC(C)[C@@H](O)CC[C@@H](C)[C@H]1CC[C@H]2[C@@H]3CC=C4C[C@@H](O)CC[C@]4(C)[C@H]3CC[C@]12C | 400 nM |  |  |
| CC(C)CCC[C@](C)(O)[C@H]1CC[C@H]2[C@@H]3CC=C4C[C@@H](O)CC[C@]4(C)[C@H]3CC[C@@]21C | 320 nM | 130 nM |  |
| C[C@@H](CO)CCC[C@@H](C)[C@H]1CC[C@H]2[C@@H]3CC=C4C[C@@H](O)CC[C@]4(C)[C@H]3CC[C@]12C | > 1000 nM |  |  |
| CCN(CC)CCO[C@H]1CC[C@@]2(C)C(=CC[C@@H]3[C@@H]2CC[C@]2(C)C(=O)CC[C@@H]32)C1 | > 50000 nM |  |  |
| COc1ccc(C(=O)O[C@H]2[C@H](O[C@@H]3[C@@H](OC(C)=O)[C@H](O[C@H]4C[C@H]5[C@@H]6CC=C7C[C@@H](O)CC[C@]7(C)[C@H]6CC[C@]5(C)[C@@]4(O)[C@H](C)C(=O)CCC(C)C)OC[C@@H]3O)OC[C@@H](O)[C@@H]2O)cc1 |  |  | Ki [4]: 71 nM; Ki [5]: 16 nM |
| C[C@H](O)[C@H]1CC[C@H]2[C@@H]3CC=C4C[C@@H](O)CC[C@]4(C)[C@H]3CC[C@]12C | > 100000 nM |  |  |
| C[C@H](CCCC(C)(C)O)[C@H]1CC[C@H]2[C@@H]3[C@H](O)C=C4C[C@@H](O)CC[C@]4(C)[C@H]3CC[C@]12C | 92 nM | 78 nM |  |
| C[C@H](CO)CCC[C@@H](C)[C@H]1CC[C@H]2[C@@H]3CC=C4C[C@@H](O)CC[C@]4(C)[C@H]3CC[C@]12C | > 870 nM |  |  |
| CCCCCCCC[C@](C)(O)[C@H]1CC[C@H]2[C@@H]3CC=C4C[C@@H](O)CC[C@]4(C)[C@H]3CC[C@@]21C | > 20000 nM | > 10000 nM |  |
| CC(C)C[C@](C)(O)[C@H]1CC[C@H]2[C@@H]3CC=C4C[C@@H](O)CC[C@]4(C)[C@H]3CC[C@@]21C | > 30000 nM | > 20000 nM |  |
| CC[C@](C)(O)[C@H]1CC[C@H]2[C@@H]3CC=C4C[C@@H](O)CC[C@]4(C)[C@H]3CC[C@@]21C | > 30000 nM | > 30000 nM |  |
| CC1(C)C[C@H]2[C@@H]3CC=C4C[C@@H](OC5CCCCO5)CC[C@]4(C)[C@H]3CC[C@]2(C)[C@H]1O (stereo partly drawn) |  |  | Ki [4]: 98 nM; Ki [5]: 22 nM |
| C[C@]12CC[C@H](O)CC1=CC[C@@H]1[C@@H]2CC[C@]2(C)C([C@H](O)CO)=CC[C@@H]12 | > 50000 nM | > 50000 nM |  |
| CC(C)CC[C@](C)(O)[C@H]1CC[C@H]2[C@@H]3CC=C4C[C@@H](O)CC[C@]4(C)[C@H]3CC[C@@]21C | > 2000 nM | 1300 nM |  |
| CC(C)CCN[C@@H](C)[C@H]1CC[C@H]2[C@@H]3CC=C4C[C@@H](O)CC[C@]4(C)[C@H]3CC[C@]12C | > 100000 nM | > 100000 nM |  |
| CCCC[C@](C)(O)[C@H]1CC[C@H]2[C@@H]3CC=C4C[C@@H](O)CC[C@]4(C)[C@H]3CC[C@@]21C | > 30000 nM | > 10000 nM |  |
| CCCCC[C@](C)(O)[C@H]1CC[C@H]2[C@@H]3CC=C4C[C@@H](O)CC[C@]4(C)[C@H]3CC[C@@]21C | 780 nM | 600 nM |  |
| C[C@@H]1[C@@]2(CC[C@](C)(O)CO2)O[C@H]2C=C3[C@@H]4[C@@H](O)C[C@H]5Cc6nc7c(nc6C[C@]5(C)[C@H]4C[C@@H](O)[C@]3(C)[C@]21O)C[C@@H]1CC[C@H]2[C@H]3C[C@@H]4O[C@@]5(CCC(C)(C)O5)[C@@H](C)[C@@H]4[C@@]3(C)[C@H](O)C[C@@H]2[C@@]1(C)C7 |  |  | Ki [4]: > 360 nM; Ki [5]: 28 nM |
| C[C@H](CCCC(C)(C)O)[C@H]1CC[C@H]2[C@@H]3CCC4C[C@@H](O)CC[C@]4(C)[C@H]3CC[C@]12C (stereo partly drawn) | 51 nM |  |  |
| CC(C)C[C@@](C)(O)[C@H]1CC[C@H]2[C@@H]3CC=C4C[C@@H](O)CC[C@]4(C)[C@H]3CC[C@@]21C | > 50000 nM | > 50000 nM |  |
| CCCCCCCC[C@@](C)(O)[C@H]1CC[C@H]2[C@@H]3CC=C4C[C@@H](O)CC[C@]4(C)[C@H]3CC[C@@]21C | > 100000 nM | > 100000 nM |  |
| CC(C)CC[C@@H](O)[C@](C)(O)[C@H]1CC[C@H]2[C@@H]3CC=C4C[C@@H](O)CC[C@]4(C)[C@H]3CC[C@]12C | > 15000 nM | > 30000 nM |  |
| CC(C)CC[C@@H](O)[C@@H](C)[C@H]1CC[C@H]2[C@@H]3CC=C4C[C@@H](O)CC[C@]4(C)[C@H]3CC[C@]12C [22(R)-HYDROXYCHOLESTEROL] | > 50000 nM |  |  |
| C[C@@H]1[C@]2(O[C@H]3C=C4[C@@H]5CC[C@H]6Cc7nc8c(nc7C[C@]6(C)[C@H]5C[C@@H](O)[C@]4(C)[C@]31O)C[C@@H]1CC[C@H]3C4=CC[C@@H]5[C@H](C)[C@@]6(OC[C@]45C(=O)C[C@@H]3[C@@]1(C)C8)OC(C)(C)C[C@H]6O)O[C@](C)(CO)C[C@H]2O [CEPHALOSTATIN 1] |  |  | Ki ([4]; hek293t): 78 nM; Ki ([5]; hek293t): 39 nM |
| C[C@@H]1CC[C@@]2(OC1)O[C@H]1C[C@H]3[C@@H]4CC=C5C[C@@H](O)CC[C@]5(C)[C@H]4CC[C@]3(C)[C@H]1[C@@H]2C [DISOGENIN] |  | > 100000 nM |  |
| CC(C)(O)[C@H]1O[C@H]2CC[C@@]3(C)[C@@](O)(CC[C@H]4Cc5c([nH]c6ccccc56)[C@@]43C)C2=CC1=O [PAXILLINE] | > 30000 nM | > 50000 nM |  |
| CC(C)=CCC/C(C)=C/Cc1c(O)cc(/C=C/c2cc(O)c3c(c2)C[C@@H]2C(C)(C)[C@H](O)[C@H](O)C[C@@]2(C)O3)cc1O [SCHWEINFURTHIN A] |  |  | Ki ([4]; hek293t): 2600 nM; Ki ([5]; hek293t): 68 nM |
